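Briefly, cells in 96-well plates were exposed to five compound concentrations for 48 h, and endpoints were estimated by linear interpolation. TGI is the concentration that stops growth completely.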

Common to all, as to experiment: NCI anticancer screen, dose series, 48 h
Test [1] deals with NCI-H460 lung.
Test [2] concerns SK-MEL-2 melanoma.
The test system of test [3] is HCT-116 colon.
Test [4] has as its system RPMI-8226 leukemia.
Test [5] has as its system NCI-H23 lung.
Test [6] relates to K-562 leukemia.
For test [7], the system named is MDA-N.
Test [8] concerns IGROV1 ovarian.
Test [9] has as its system NCI/ADR-RES ovarian.
Test [10] has as its system PC-3 prostate.
Test [11] has as its system NCI-H522 lung.
Test [12] concerns EKVX NSCLC.
For test [13], the system named is MOLT-4 leukemia.
Test [14] deals with SW-620 colon.
In test [15] the test system is BT-549 breast.
For test [16], the system named is OVCAR-5 ovarian.
The subject of test [17] is SK-OV-3 ovarian.
For test [18], the system named is HCC-2998 colon.
Test [19] relates to COLO 205 colon.

Consider `NC(=O)c1cc2ccc(O)cc2oc1=Nc1ccccc1`, for which the TGI is over 100 µM in test [1]; 53 µM in [2]; over 100 µM in test [3]; 63.8 µM in [4]; 56 µM in [5]; over 100 µM in [6]. The TGI in test [7] was over 100 µM; in test [8], over 100 µM; in [9] it was over 100 µM; in [10], over 100 µM; in test [11], 77.9 µM; in [12], over 100 µM. In addition, the TGI in test [13] is 88.8 µM; in test [14], over 100 µM; in test [15] it was over 100 µM; in test [16] it was over 100 µM; in [17], over 100 µM; in test [18] it was 78.8 µM. Also, the TGI in test [19] was 44 µM.

Regarding `Cc1ccc(/C=C/c2nnc(N/N=C/c3ccc4c(c3)OCO4)[nH]c2=O)cc1`, the TGI in test [1] was 57.6 µM; in test [2] it was 78.9 µM; in test [3] it was 45.9 µM; in test [4], over 100 µM; in test [5], 32.5 µM; in [6], 70.7 µM. Besides, the TGI in [7] is 62.4 µM; in [8], 41.8 µM; in test [9] it was 37.5 µM; in test [10], 43.3 µM; in [11] it was over 100 µM; in test [12] it was over 100 µM. The TGI is over 100 µM in test [13]; 42.6 µM in [14]; 33.9 µM in test [15]; over 100 µM in [16]; 93.2 µM in test [17]; 79.8 µM in test [18]. In test [19], this compound registered a TGI of over 100 µM.

On to `C=CCC1(OC(C)=O)C2OC(=O)C1(O)OCC2O` (stereo unspecified), for which the TGI in test [1], in test [2], in test [3], in test [4], in [5] and in test [6] was over 100 µM each time. In addition, the TGI in test [7], in [8], in test [9], in [10], in test [11] and in [12] was over 100 µM each time. In addition, the TGI in [13], in test [14], in [15], in [16], in test [17] and in [18] was over 100 µM each time. This compound also showed a TGI in [19] of over 100 µM.

Consider `Cn1c(O)c(C=Nc2ccccc2[N+](=O)[O-])c(=O)n(C)c1=O`, for which the TGI in test [1], in test [2], in test [3], in [4], in test [5] and in test [6] was over 100 µM in each case. The TGI in [7], in test [8], in test [9], in [10], in test [11] and in [12] was over 100 µM each time. For the same compound, the TGI in test [13], in [14], in test [15], in test [16], in test [17] and in [18] was over 100 µM each time. In test [19], the TGI was over 100 µM.

The record behind these values is PubChem BioAssay (NCI).
